Results reported in PubChem BioAssay AID330 (DTP/NCI, 2004).
“And” between values parts separate entries of the source, which are not always exact repeats. Identical values can stand only once. Toxic doses and inconclusive results are not listed.

Tested on: P388 leukemia ip, CD2F1 mice, survival T/C
Experiment: NCI In Vivo Anticancer Drug Screen. Data for tumor model P388 Leukemia (intraperitoneal) in CD2F1 (CDF1) mice
Settings: endpoint: median survival time, higher = longer survival
Outline: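 Mice carrying the transplanted tumor received test compound or vehicle. Survival was recorded in each group, and the value is the treated-group measurement divided by that of the vehicle-treated control group.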

[1] = dose: 12.5 mg/kg/injection, schedule: Q01DX009 (ip), vehicle: saline
[2] = dose: 50.0 mg/kg/injection, schedule: Q01DX009 (ip), vehicle: saline
[3] = dose: 50.0 mg/kg/injection, schedule: Q01DX005 (ip), vehicle: saline
[4] = dose: 100.0 mg/kg/injection, schedule: Q01DX005 (ip), vehicle: saline
[5] = dose: 200.0 mg/kg/injection, schedule: Q01DX005 (ip), vehicle: saline
[6] = dose: 50.0 mg/kg/injection, schedule: Q01DX005 (ip), vehicle: saline with Tween-80
[7] = dose: 50.0 mg/kg/injection, schedule: Q01DX009 (ip), vehicle: saline with Tween-80
[8] = dose: 100.0 mg/kg/injection, schedule: Q01DX009 (ip), vehicle: saline with Tween-80

With `Cc1nn(-c2ccc(S(=O)(=O)[O-])cc2)c([O-])c1N=[N+](C)c1ccc(-c2ccc(N=Nc3ccc4c(S(=O)(=O)[O-])cc(S(=O)(=O)[O-])c(N)c4c3[O-])c([O-])c2)cc1[O-].[Cu+2].[Cu+2].[Na+]` the T/C (dose: 3.12 mg/kg/injection, schedule: Q01DX009 (ip), vehicle: saline with Tween-80) was 96 % of control, the T/C (dose: 6.25 mg/kg/injection, schedule: Q01DX009 (ip), vehicle: saline with Tween-80) was 96 % of control and the T/C (dose: 12.5 mg/kg/injection, schedule: Q01DX009 (ip), vehicle: saline with Tween-80) was 99 % of control and 86 % of control. The T/C [1] was 97 % of control and the T/C [2] was 96 % of control.

`CCc1nn2c(=O)nc(SC)nc2s1` was tested, and the T/C (dose: 12.5 mg/kg/injection, schedule: Q04DX003 (ip), vehicle: saline with Tween-80) was 102 % of control, the T/C (dose: 25.0 mg/kg/injection, schedule: Q04DX003 (ip), vehicle: saline with Tween-80) was 100 % of control and the T/C (dose: 50.0 mg/kg/injection, schedule: Q04DX003 (ip), vehicle: saline with Tween-80) was 102 % of control.

With `CCCCN(CCCC)c1ccc(C(=N)c2ccc(N(C)C)cc2)cc1` the T/C (dose: 6.25 mg/kg/injection, schedule: Q01DX005 (ip), vehicle: Klucel (hydroxypropylcellulose) (HPC)) was 106 % of control and the T/C (dose: 12.5 mg/kg/injection, schedule: Q01DX005 (ip), vehicle: Klucel (hydroxypropylcellulose) (HPC)) was 106 % of control.

In the case of `OCCN1CCN(CCCN2c3ccccc3Sc3ccc(C(F)(F)F)cc32)CC1`, the T/C (dose: 7.5 mg/kg/injection, schedule: Q04DX003 (ip), vehicle: saline) is reported as 111 % of control, the T/C (dose: 15.0 mg/kg/injection, schedule: Q04DX003 (ip), vehicle: saline) is reported as 120 % of control and the T/C (dose: 60.0 mg/kg/injection, schedule: Q04DX003 (ip), vehicle: saline) is reported as 123 % of control.

With `CCN(CC)CCCN1CC(=O)N2CCCCN2C(=O)C1` the T/C [3] was 102 % of control, the T/C [4] was 100 % of control and the T/C [5] was 100 % of control.

In the case of `COc1cc(Nc2ccccc2)c2c(c1N)C(=O)c1ccccc1C2=O`, the T/C [6] is reported as 91 % of control and the T/C (dose: 100.0 mg/kg/injection, schedule: Q01DX005 (ip), vehicle: saline with Tween-80) is reported as 88 % of control.

`C=CCSc1cccc2ccccc12` was tested, and the T/C [7] was 100 % of control and the T/C [8] was 109 % of control.

With `C/C=C1\NC(=O)c2csc(n2)C(C(C)C)NC(=O)c2csc(n2)/C(=C/C)NC(=O)C(C(C)O)NC(=O)c2csc(n2)-c2ccc(-c3nc(-c4nc(C(=O)NC(C(=O)NCC(C)O)C(C)O)cs4)cs3)nc2-c2csc1n2` (stereo not drawn) the T/C (dose: 0.25 mg/kg/injection, schedule: Q01DX009 (ip), vehicle: Klucel (hydroxypropylcellulose) (HPC)) was 107 % of control, the T/C (dose: 0.5 mg/kg/injection, schedule: Q01DX009 (ip), vehicle: Klucel (hydroxypropylcellulose) (HPC)) was 112 % of control and the T/C (dose: 1.0 mg/kg/injection, schedule: Q01DX009 (ip), vehicle: Klucel (hydroxypropylcellulose) (HPC)) was 104 % of control. For the same molecule, the T/C (dose: 2.0 mg/kg/injection, schedule: Q01DX009 (ip), vehicle: Klucel (hydroxypropylcellulose) (HPC)) was 103 % of control.

With `COc1ccc2c(c1OC)C1NCCc3cc4c(cc3C1(OC)C2=O)OCO4` (stereo not drawn) the T/C (dose: 25.0 mg/kg/injection, schedule: Q01DX005 (ip), vehicle: distilled water + Tween-80 + alcohol) was 109 % of control, the T/C (dose: 50.0 mg/kg/injection, schedule: Q01DX005 (ip), vehicle: distilled water + Tween-80 + alcohol) was 104 % of control and the T/C (dose: 100.0 mg/kg/injection, schedule: Q01DX005 (ip), vehicle: distilled water + Tween-80 + alcohol) was 107 % of control. The T/C (dose: 200.0 mg/kg/injection, schedule: Q01DX005 (ip), vehicle: distilled water + Tween-80 + alcohol) was 103 % of control.

For `NCC1CC2(Cl)C(Cl)=C(Cl)C1(Cl)C2(Cl)Cl` (stereo not drawn), the T/C (dose: 12.5 mg/kg/injection, schedule: Q01DX005 (ip), vehicle: saline with Tween-80) was 106 % of control, the T/C (dose: 25.0 mg/kg/injection, schedule: Q01DX005 (ip), vehicle: saline with Tween-80) was 107 % of control and the T/C [6] was 107 % of control and 111 % of control.

With `CCOc1c(N=Nc2ccc(OC)cc2)c(C)nn1C(=S)S` the T/C (dose: 60.0 mg/kg/injection, schedule: Q01DX005 (ip), vehicle: Klucel (hydroxypropylcellulose) (HPC)) was 115 % of control, the T/C (dose: 120.0 mg/kg/injection, schedule: Q01DX005 (ip), vehicle: Klucel (hydroxypropylcellulose) (HPC)) was 112 % of control and the T/C (dose: 240.0 mg/kg/injection, schedule: Q01DX005 (ip), vehicle: Klucel (hydroxypropylcellulose) (HPC)) was 100 % of control.

For `O=[N+]([O-])c1ccc(N2CCN(c3ccccc3)CC2)c2c1no[n+]2[O-]`, the T/C (dose: 37.5 mg/kg/injection, schedule: Q04DX003 (ip), vehicle: saline) was 105 % of control, the T/C (dose: 37.5 mg/kg/injection, schedule: Q04DX003 (ip), vehicle: suspension in saline) was 104 % of control and the T/C (dose: 75.0 mg/kg/injection, schedule: Q04DX003 (ip), vehicle: saline) was 100 % of control. The T/C (dose: 75.0 mg/kg/injection, schedule: Q04DX003 (ip), vehicle: suspension in saline) was 100 % of control, the T/C (dose: 150.0 mg/kg/injection, schedule: Q04DX003 (ip), vehicle: saline) was 97 % of control and the T/C (dose: 150.0 mg/kg/injection, schedule: Q04DX003 (ip), vehicle: suspension in saline) was 111 % of control. For the same molecule, the T/C (dose: 300.0 mg/kg/injection, schedule: Q04DX003 (ip), vehicle: saline) was 101 % of control and the T/C (dose: 300.0 mg/kg/injection, schedule: Q04DX003 (ip), vehicle: suspension in saline) was 104 % of control.

For `C=CCN(CC=C)Sc1cccc([N+](=O)[O-])c1`, the T/C [2] was 109 % of control and the T/C (dose: 100.0 mg/kg/injection, schedule: Q01DX009 (ip), vehicle: saline) was 117 % of control.

In the case of `CCC(=O)c1cccc2c(C=O)c(Cl)n(C(=O)CC)c12`, the T/C (dose: 50.0 mg/kg/injection, schedule: Q01DX001 (ip), vehicle: Klucel (hydroxypropylcellulose) (HPC)) is reported as 100 % of control, the T/C (dose: 100.0 mg/kg/injection, schedule: Q01DX001 (ip), vehicle: Klucel (hydroxypropylcellulose) (HPC)) is reported as 100 % of control and the T/C (dose: 200.0 mg/kg/injection, schedule: Q01DX001 (ip), vehicle: Klucel (hydroxypropylcellulose) (HPC)) is reported as 101 % of control.

For `CCCN(CCC)CCC(=O)OCC`, the T/C (dose: 100.0 mg/kg/injection, schedule: Q04DX003 (ip), vehicle: saline with Tween-80) was 118 % of control, the T/C (dose: 200.0 mg/kg/injection, schedule: Q04DX003 (ip), vehicle: saline with Tween-80) was 100 % of control and the T/C (dose: 400.0 mg/kg/injection, schedule: Q04DX003 (ip), vehicle: saline with Tween-80) was 100 % of control.

With `CCN(CC)CCCC(C)Nc1cc(-c2ccccc2)nc2cc(Cl)ccc12` (stereo not drawn) the T/C [3] was 106 % of control, the T/C [4] was 112 % of control and the T/C [5] was 116 % of control.

With `CC(=O)N1CCc2cc(C(C)C)ccc21` the T/C (dose: 25.0 mg/kg/injection, schedule: Q01DX009 (ip), vehicle: other) was 97 % of control, the T/C (dose: 50.0 mg/kg/injection, schedule: Q01DX009 (ip), vehicle: other) was 97 % of control and the T/C (dose: 100.0 mg/kg/injection, schedule: Q01DX009 (ip), vehicle: other) was 91 % of control. The T/C (dose: 200.0 mg/kg/injection, schedule: Q01DX009 (ip), vehicle: other) was 103 % of control and the T/C (dose: 400.0 mg/kg/injection, schedule: Q01DX009 (ip), vehicle: other) was 88 % of control.

For `CC1(C)N=C(N)N=C(N)N1c1ccc(Cl)c(C(F)(F)F)c1`, the T/C (dose: 3.12 mg/kg/injection, schedule: Q01DX009 (ip), vehicle: saline) was 108 % of control, the T/C [1] was 124 % of control and the T/C (dose: 12.5 mg/kg/injection, schedule: Q01DX009 (ip), vehicle: suspension in saline) was 155 % of control. The T/C (dose: 25.0 mg/kg/injection, schedule: Q01DX009 (ip), vehicle: suspension in saline) was 172 % of control.

In the case of `O=C(O)c1c(Br)c(Br)c(Br)c(Br)c1-c1c2ccc(=O)cc-2oc2cc(O)ccc12`, the T/C (dose: 60.0 mg/kg/injection, schedule: Q01DX005 (ip), vehicle: saline with Tween-80) is reported as 101 % of control, the T/C (dose: 120.0 mg/kg/injection, schedule: Q01DX005 (ip), vehicle: saline with Tween-80) is reported as 105 % of control and the T/C (dose: 240.0 mg/kg/injection, schedule: Q01DX005 (ip), vehicle: saline with Tween-80) is reported as 101 % of control.

With `CCN(CC)C(=S)Oc1cc2oc(=O)cc(C)c2cc1Cl` the T/C [7] was 98 % of control, the T/C [8] was 100 % of control and the T/C (dose: 200.0 mg/kg/injection, schedule: Q01DX009 (ip), vehicle: saline with Tween-80) was 100 % of control.
